Among the test systems are Escherichia coli O157; Listeria monocytogenes; Salmonella typhimurium; Citrobacter freundii; Enterobacter cloacae; Enterococcus faecalis; Escherichia coli NDM-1; Klebsiella oxytoca; Morganella morganii; Bacillus subtilis 168; Escherichia coli BL21; Escherichia coli ESBL; Staphylococcus aureus; Escherichia coli E416-7.
Assay in all cases: ≥ marks a high value that may be exact or a test limit, other limits are often not marked, values filed in µg/mL are converted to µM
Assay [1] concerns Acinetobacter baumannii ATCC 17978D-5.
For assay [2], the system named is Enterococcus faecium ATCC 700221.
The subject of assay [3] is Klebsiella aerogenes ATCC 13048.
Assay [4] concerns Pseudomonas aeruginosa ATCC 19660.
Assay [5] has as its system Pseudomonas aeruginosa ATCC 27853.
Assay [6] relates to Staphylococcus aureus ATCC 33591.
Assay [7] relates to Staphylococcus epidermidis ATCC 51625.
Assay [8] has as its system Streptococcus pneumoniae ATCC 49619.
Assay [9] concerns Escherichia coli ATCC 25404.
Assay [10] relates to Micrococcus luteus ATCC 10420.
In assay [11] the test system is Staphylococcus aureus ATCC 25923.
Assay [12] has as its system Staphylococcus epidermidis ATCC 9709.
Assay [13] relates to Bacillus subtilis ATCC 23857.
The subject of assay [14] is Escherichia coli ATCC 25922.
Assay [15] deals with Klebsiella pneumoniae NDM-1.
For assay [16], the system named is Staphylococcus aureus ATCC 1717.
The subject of assay [17] is Enterococcus faecium V286-17.
For assay [18], the system named is Klebsiella pneumoniae ATCC 13883.
Assay [19] has as its system Klebsiella pneumoniae E406-17.
The test system of assay [20] is Pseudomonas aeruginosa E411-17.
Assay [21] relates to Pseudomonas aeruginosa PAO1.
Assay [22] has as its system Staphylococcus aureus JE2.
The subject of assay [23] is Staphylococcus aureus M838-17.
In assay [24] the test system is Staphylococcus aureus USA 300.
In assay [25] the test system is Bacillus amyloliquefaciens ATCC 23842.
The subject of assay [26] is Bacillus cereus ATCC 14579.
The test system of assay [27] is Bacillus licheniformis ATCC 14580.
Assay [28] deals with Bacillus subtilis ATCC 6051.
The subject of assay [29] is Enterococcus faecalis 1F-1.
Assay [30] concerns Enterococcus faecium 5F-10.
Assay [31] relates to Proteus mirabilis ATCC 35659.
For assay [32], the system named is Salmonella enterica ATCC H9812.
Assay [33] deals with Staphylococcus aureus ATCC 29213.

From DBAASP come the findings set out here.

In brackets after ≈: the same amount, converted by molar mass. Several values for one entry are separate records, joined by “and”; a condition that tells them apart may be missing. Equal entries are not always repeated. Bounds are passed on as bounds.

For orientation: MIC means the smallest concentration in the dilution series that meets the test's criterion for growth inhibition. A low value points to a more susceptible organism. `C[C@H](NC(=O)[C@H](Cc1ccccc1)NC(=O)[C@H](C)NC(=O)[C@H](Cc1ccccc1)NC(=O)[C@H](C)NC(=O)[C@H](Cc1ccccc1)NC(=O)[C@H](CCCCN)NC(=O)[C@H](CCCCN)NC(=O)[C@H](C)NC(=O)[C@H](Cc1ccccc1)NC(=O)[C@H](CCCCN)NC(=O)[C@H](CCCCN)NC(=O)[C@H](Cc1ccccc1)NC(=O)[C@H](CCCCN)NC(=O)[C@H](CCCCN)NC(=O)[C@H](C)NC(=O)[C@H](Cc1ccccc1)NC(=O)[C@H](CCCCN)NC(=O)[C@H](CCCCN)NC(=O)[C@H](C)NC(=O)[C@@H](N)Cc1ccccc1)C(=O)N[C@@H](Cc1ccccc1)C(=O)O` [FAKKFAKKFKKFAKKFAFAFAF]: the MIC in [1] came out at 12.1 µM (≈ 32 µg/mL); in assay [2], 12.1 µM (≈ 32 µg/mL); in [3] it was 12.1 µM (≈ 32 µg/mL); in assay [4] it was 12.1 µM (≈ 32 µg/mL); in [5] it was 12.1 µM (≈ 32 µg/mL); in assay [6] it was 24.2 µM (≈ 64 µg/mL). Moreover, the MIC in assay [7] stood at 3.02 µM (≈ 8 µg/mL); in assay [8], 6.04 µM (≈ 16 µg/mL).
For the compound `CC(C)C[C@H](NC(=O)[C@H](CC(C)C)NC(=O)[C@H](CCCCN)NC(=O)[C@H](CO)NC(=O)[C@H](CC(C)C)NC(=O)[C@H](C)NC(=O)[C@H](Cc1cnc[nH]1)NC(=O)[C@H](Cc1c[nH]c2ccccc12)NC(=O)[C@H](CC(C)C)NC(=O)[C@H](C)NC(=O)CNC(=O)[C@H](CC(C)C)NC(=O)[C@@H](N)Cc1ccccc1)C(=O)O` [FLGALWHALSKLL], the MIC in assay [9] was at least 64 µM; against Escherichia coli O157 it was at least 64 µM; with Listeria monocytogenes it was 8 µM (≈ 11.8 µg/mL); in [10], 2 µM (≈ 2.94 µg/mL); against Salmonella typhimurium it was at least 64 µM; in assay [11], 8 µM (≈ 11.8 µg/mL). Moreover, in assay [12], the MIC turned out to be 4 µM (≈ 5.88 µg/mL).
Regarding `CC[C@H](C)[C@H](NC(=O)CNC(=O)[C@@H](NC(=O)[C@H](CCCCN)NC(=O)[C@H](C)NC(=O)[C@@H](NC(=O)[C@@H](NC(=O)CN)[C@@H](C)CC)[C@@H](C)CC)[C@@H](C)CC)C(=O)N[C@@H](CCCCN)C(=O)N[C@H](C(=O)N[C@@H](CCCCN)C(=O)N[C@@H](CCCCN)C(N)=O)[C@@H](C)CC` [GIIAKIGIKIKK], the MIC in assay [13] is 16 µM (≈ 20.5 µg/mL); in the assay on Citrobacter freundii, 22.6 µM (≈ 29 µg/mL); in the assay on Enterobacter cloacae it was 22.6 µM (≈ 29 µg/mL); against Enterococcus faecalis, at least 128 µM; in assay [14], 32 µM (≈ 41 µg/mL); in the assay with Escherichia coli NDM-1, 16 µM (≈ 20.5 µg/mL). Also, the minimum inhibitory concentration (MIC) is at least 64 µM in the assay with Klebsiella oxytoca, 22.6 µM (≈ 29 µg/mL) in assay [15], at least 128 µM with Morganella morganii and at least 128 µM in assay [16].
Take `CC[C@H](C)[C@H](NC(=O)CN)C(=O)N[C@H](C(=O)N[C@@H](CCCCN)C(=O)N[C@@H](CCCCN)C(=O)N[C@H](C(=O)N[C@H](C(=O)N[C@@H](CCCCN)C(=O)N[C@@H](CCCCN)C(=O)N[C@H](C(=O)N[C@H](C(=O)N[C@@H](CCCCN)C(=O)N[C@@H](CCCCN)C(N)=O)[C@@H](C)CC)[C@@H](C)CC)[C@@H](C)CC)[C@@H](C)CC)[C@@H](C)CC` [GIIKKIIKKIIKK]: the minimal inhibitory concentration (MIC) came to 2.5 µM (≈ 3.81 µg/mL) against Bacillus subtilis 168, 20 µM (≈ 30.4 µg/mL) in the assay on Escherichia coli BL21, 20 µM (≈ 30.4 µg/mL) against Escherichia coli ESBL and 20 µM (≈ 30.4 µg/mL) in the assay with Staphylococcus aureus.
`CC(C)C[C@H](NC(=O)[C@H](CC(C)C)NC(=O)[C@H](CCCCN)NC(=O)[C@H](CC(C)C)NC(=O)CNC(=O)[C@H](CC(C)C)NC(=O)[C@H](CO)NC(=O)[C@H](CC(C)C)NC(=O)[C@H](CC(C)C)NC(=O)[C@H](CC(C)C)NC(=O)[C@H](CCCCN)NC(=O)[C@H](CC(C)C)NC(=O)CN)C(N)=O` [GLKLLLSLGLKLL]: the MIC was 4.4 µM (≈ 6.07 µg/mL) in [17]; over 25 µM in assay [14]; at least 50 µM against Escherichia coli E416-7; 25 µM (≈ 34.5 µg/mL) in [18]; at least 50 µM in assay [19]; at least 50 µM in assay [20]. Moreover, the MIC in assay [21] is over 25 µM; in [22] it was 1.13 µM (≈ 1.56 µg/mL); in assay [23], 2.25 µM (≈ 3.1 µg/mL); in assay [24], 1.6 µM and 3.1 µM and 4.4 µM.
As for `CC(C)C[C@H](NC(=O)[C@@H](N)CC(C)C)C(=O)N[C@@H](CO)C(=O)N[C@@H](CCCN=C(N)N)C(=O)N[C@H](C(=O)N[C@@H](CC(=O)O)C(=O)O)C(C)C` [LLSRVD], the MIC in [25], in assay [26], in assay [27], in assay [28], in assay [29] and in assay [30] was at least 182 µM throughout. Further, the MIC is 91.2 µM (≈ 64 µg/mL) in [14]; at least 182 µM in [31]; over 182 µM in [21]; at least 182 µM in assay [32]; over 182 µM in assay [33].
